Converted amounts (≈) assume the structure as drawn.
Legend:
[1] = tested on: S. pyogenes; assay: microbe, parasite or virus in culture; conditions: for bacteriostatic and bactericidal activity: S. pyogenes, in vitro; for MBC / MIC: Streptococcus pyogenes; for MBC: read-out: MBC (Minimum Bactericidal Concentration); for MIC: read-out: MIC (Minimum Inhibitory Concentration)
Description: (§1) Miller et al., Arch Dermatol 124:209-15, 1988; Wille and Kydonieus, Skin Pharmacol Appl Skin Physiol 16:176-87, 2003. To test the working hypothesis, a series of in vitro experiments were first performed in which the effect of each lipid was measured on the growth of S. pyogenes, S. aureus and E. coli.
(§2) Bacteria. S. aureus Xen8.1 (parental strain 8325-4), S. pyogenes Xen20 (derived from serotype M49, strain 591) and E. coli Xen14 (derived from EPEC WS2572) were obtained from Xenogen (Carnbury, N.J.)

[2] = tested on: S. aureus; assay: Minimum inhibitory and bactericidal concentration on S. aureus in vitro; type: cell-based, Staphylococcus aureus; conditions: for bacteriostatic and bactericidal activity: in vitro
Description: as §1, §2

[3] = tested on: S. aureus; assay: S. aureus skin infection in flake (flk/flk) mutant mice; type: in vivo, mouse; conditions: flake mutants; 100 μl of 100 μM every two days
Description: However, complete rescue of the phenotype was not achieved by this pharmacological approach.
A. Palmitoleate injection accelerates bacterial clearance in wild-type mice. Luminescence (expressed as a percentage of the initial inoculum) was measured in control (C57BL/6) mice inoculated with S. aureus (at day 0) and treated by vehicle (DMSO) or palmitoleate injections every two days (arrows). B. Picture of control (C57BL/6) mice 9 days after S. aureus infection treated by DMSO (top) or palmitoleate (bottom) injections. C. Histogram showing the size of the lesion measured at day 9 after the infection in control (B6) mice treated with DMSO or palmitoleate. ** indicates P value <0.01. D. Palmitoleate treatment in S. aureus-infected flake mice. The protocol is similar as in A, except that 100 μl injections of a 75 mM solution of palmitoleate were performed. E. Pictures of infected flake mice at day 12 after DMSO (top) or palmitoleate (bottom) treatment. F. Size of the lesion (determined at day 12) in infected flk mutants treated with DMSO or palmitoleate. * indicates P value <0.05.
Skin infection. […] Luminescence was monitored daily with a CCD camera (5 min exposure of the animals) and quantification was done with the IVIS program from Xenogen.

[4] = tested on: S. aureus; assay: S. aureus skin infection in wild-type (C57BL/6) mice, luminescence and wound size; type: in vivo, mouse
Description: To investigate the physiological relevance of this antimicrobial activity, wild-type mice were inoculated with S. aureus and treated the infected animals by repeated (every two days) subcutaneous injections of palmitoleate (100 μl of a 100 μM solution in DMSO), or DMSO alone at the site of infection. The results of this experiment are illustrated in FIGS. 6A and B. For both groups of mice (n=6 animals), luminescence is expressed as a percentage of the initial inoculum, determined 24 hours after infection. […] As a consequence of improved S. aureus elimination, the diameter of the ulcerative wound (measured at day 9) in lipid-treated animals is one fourth that observed in controls (FIG. 6C).
A. Palmitoleate injection accelerates bacterial clearance in wild-type mice. Luminescence (expressed as a percentage of the initial inoculum) was measured in control (C57BL/6) mice inoculated with S. aureus (at day 0) and treated by vehicle (DMSO) or palmitoleate injections every two days (arrows). […] Histogram showing the size of the lesion measured at day 9 after the infection in control (B6) mice treated with DMSO or palmitoleate. ** indicates P value <0.01. […] F. Size of the lesion (determined at day 12) in infected flk mutants treated with DMSO or palmitoleate. * indicates P value <0.05. […]

[5] = tested on: SZ95 sebocytes; assay: SZ95 human sebocytes: IL-6/IL-8 ELISA and SCD1/FADS2 RT-PCR; type: cell-based; conditions: SZ95 cells
Source text: To corroborate potential relevance of inducible Scd1 expression in human skin defense against Gram-positive pathogens, the effect of MALP-2 was investigated on the immortalized human sebocyte cell line SZ95. Zouboulis et al., J. Invest Dermatol. 113:1011-1020, 1999. […] These observations were extended by monitoring the expression of the fatty acid desaturase2 (FADS2) gene. FADS2 encodes a protein with enzymatic properties similar to those of SCD1 and was recently shown to be deficient in a patient affected by a severe skin condition manifested by cheilosis, a hyperkeratotic rash over the arms and legs and perineal dermatitis. Williard et al., J. Lipid Res. 42:501-508, 2001.
A. IL-6 production is induced in SZ95 cells after MALP-2 treatment (50 ng/ml). […] B. Quantification of IL-8 in the same conditions as in A. C. RT-PCR detection of SCD1 and FADS2 expression 4 and 18 hours after LPS and MALP-2 stimulation. GAPDH expression was used as control. D. Quantification of the SCD1 and FADS2 signals measured in two independent experiments (+/− s.e.m) after normalization with the GAPDH signal.
Cell culture. SZ95 sebocytes were maintained in HSG-Med (Sebomed, Berlin, Germany) supplemented with 10% heat inactivated FCS, 5 ng/ml human epidermal growth factor, 1 mM CaCl2, 10^−5 M palmitic acid, 50 μg/ml gentamicin for 2, 4, 8 and 18 hours with/without 50 ng/ml MALP-2 or 100 ng/ml LPS and the supernatants were collected for IL6 and IL8 evaluation by ELISA. RNA was isolated from the 4- and 18-hour samples by the RNeasy Midi kit (Qiagen, Hilden, Germany) and purified by the RNase-Free DNase set (Qiagen) for RT-PCR.
Semi-quantitative RT-PCR. Wild-type and Tlr2^−/− mutant mice were depilated and infected by subcutaneous injection of S. aureus or E. coli (5×10^5 […]). After 24 h, the skin of the infected area was dissected and total RNA was extracted by the Trizol (Gibco) method. […] Hoebe et al., J Endotoxin Res 9:250-5, 2003. hSCD1 and hFADS2 expression SZ95 sebocytes was measured by semi-quantitative RT-PCR using the following oligonucleotides: […]

[6] = tested on: Scd1 expression in peritoneal macrophages; assay: Scd1 expression by RT-PCR in stimulated peritoneal macrophages; type: cell-based; conditions: wild-type mouse peritoneal macrophages, within 18 hours after stimulation
Source text: A. SignalScan analysis of the Scd1 promoter. NF-κB and ISRE (interferon-stimulated regulatory element) are shown. B. RT-PCR detection of Scd1 and β-actin transcripts in skin biopsies of non-infected controls (C57BL/6, lane 1) and Tlr2−/− (lane 4) animals or after infection by S. aureus (lanes 2 and 5) or E. coli (lane 3). PCR products after 30 and 40 cycles are shown. M, size standard. C. RT-PCR detection of Scd1 and β-actin transcripts in controls (0) and MALP-induced peritoneal macrophages isolated from wild-type mice after 2, 4, 8 and 18 h. D. Quantification of the Scd1/β-actin ratio.
Macrophages, which represent an ideal system in which to study TLR signaling, also express the Scd1 gene, as reported recently. Uryu et al., Biochem Biophys Res Commun 303:302-5, 2003. To determine whether isolated macrophages are capable of upregulating Scd1 and to determine the kinetics of the response, peritoneal macrophages isolated from wild-type mice were stimulated with, synthetic macrophage-activating lipopeptide (MALP-2, EMC microcollections GmbH, Germany), a known TLR2 agonist. Takeuchi et al., J Immunol 164:554-7, 2000. […]
Semi-quantitative RT-PCR. […] Hoebe et al., J Endotoxin Res 9:250-5, 2003. hSCD1 and hFADS2 expression SZ95 sebocytes was measured by semi-quantitative RT-PCR using the following oligonucleotides: […]

[7] = Staphylococcus aureus, average of 3 experiments

Compound	bacteriostatic and bactericidal activity [1]	MBC [1]	MIC [1]	MIC [2, 7]	bacteriostatic and bactericidal activity [2]	bacterial growth [3]	reduction of luminescence compared to vehicle-treated mice ([4]; 9 days after S. aureus inoculation, s.c. 100 μl of 100 μM in DMSO every two days)	diameter of the ulcerative wound relative to controls ([4]; measured at day 9, s.c. 100 μl of 100 μM every two days)	MBC [2, 7]	SCD1 transcription ([5]; 4 hours after stimulation)	FADS2 expression ([5]; 18 hours after stimulation)	IL-6 and IL-8 production ([5]; MALP-2 50 ng/ml, LPS 100 ng/ml)	increase of Scd1 expression [6]
CCCCCCCC/C=C\CCCCCCCC(=O)O [Oleate, oleic acid]	strong bacteriostatic and bactericidal activity	13.3 µM (≈ 3.76 µg/mL)	8.3 µM (≈ 2.34 µg/mL)	> 75 µM	strong bacteriostatic and bactericidal activity								
CCCCCC/C=C\CCCCCCCC(=O)O [Palmitoleate, palmitoleic acid]	strong bacteriostatic and bactericidal activity	10 µM (≈ 2.54 µg/mL)	10 µM (≈ 2.54 µg/mL)	36.6 µM (≈ 9.31 µg/mL)	strong bacteriostatic and bactericidal activity	marked reduction of bacterial growth between days 1 and 4	90%	one fourth	50 µM (≈ 12.7 µg/mL)				
MALP-2										up-regulated	slightly but specifically induced	increased IL-6 and IL-8 production	4 fold

Reference: patent US20090202519A1, “Compositions and methods for treating gram positive bacterial infection in a mammalian subject” (The Scripps Research Institute, priority 2005, published 2009)
